According to ChEMBL document CHEMBL1147969, “Synthesis of some novel heterocyclic compounds derived from diflunisal hydrazide as potential anti-infective and anti-inflammatory agents” (2007):
Active and inactive are the calls of the source. The calls are words filed in the database; no cut-off is given here.

Test system: Vaccinia virus
Test: Antiviral activity against Vaccinia virus-induced cytopathogenicity at 16 ug/mL
Assay type: functional, organism-based
Conditions: Orthopoxvirus vaccinia

Cc1ccc(-n2c(-c3cc(-c4ccc(F)cc4F)ccc3O)n[nH]c2=S)cc1
Activity: Active
